Experiment [1] deals with T1, off-target kinases (Homo sapiens, UniProt Q16832).
T1 sequence (Q16832 22-855): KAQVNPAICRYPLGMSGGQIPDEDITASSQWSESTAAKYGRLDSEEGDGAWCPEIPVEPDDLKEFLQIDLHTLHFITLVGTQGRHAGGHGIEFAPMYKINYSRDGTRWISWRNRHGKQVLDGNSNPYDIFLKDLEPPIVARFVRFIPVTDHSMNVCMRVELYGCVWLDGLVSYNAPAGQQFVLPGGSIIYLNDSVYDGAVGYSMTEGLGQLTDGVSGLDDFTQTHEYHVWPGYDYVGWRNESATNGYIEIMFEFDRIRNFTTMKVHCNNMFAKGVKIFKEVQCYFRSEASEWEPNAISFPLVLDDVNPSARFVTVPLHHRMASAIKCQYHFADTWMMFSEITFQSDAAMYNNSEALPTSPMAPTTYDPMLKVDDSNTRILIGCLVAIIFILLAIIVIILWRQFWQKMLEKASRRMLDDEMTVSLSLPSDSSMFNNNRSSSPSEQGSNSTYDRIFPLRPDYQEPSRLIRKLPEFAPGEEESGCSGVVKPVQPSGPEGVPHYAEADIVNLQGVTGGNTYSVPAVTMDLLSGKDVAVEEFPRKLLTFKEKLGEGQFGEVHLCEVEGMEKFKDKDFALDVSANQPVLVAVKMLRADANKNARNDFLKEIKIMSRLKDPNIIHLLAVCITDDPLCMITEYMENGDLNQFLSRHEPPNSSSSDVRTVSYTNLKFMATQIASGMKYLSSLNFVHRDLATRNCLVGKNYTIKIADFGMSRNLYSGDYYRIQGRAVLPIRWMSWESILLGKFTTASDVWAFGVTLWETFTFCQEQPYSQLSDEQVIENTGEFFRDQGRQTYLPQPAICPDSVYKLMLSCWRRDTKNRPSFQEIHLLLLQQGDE
The experiment in a line: SelectScreen Kinase Profiling, single point inhibition and IC50 for off-target kinases. It is filed as biochemical. The note with it: DDR2, LanthaScreen Binding. In general terms: In TR-FRET formats the signal depends on donor and acceptor labels being close together.

Experiment [2] deals with T2, off-target kinases (Homo sapiens, UniProt Q9HBY8).
T2 sequence (Q9HBY8 1-367): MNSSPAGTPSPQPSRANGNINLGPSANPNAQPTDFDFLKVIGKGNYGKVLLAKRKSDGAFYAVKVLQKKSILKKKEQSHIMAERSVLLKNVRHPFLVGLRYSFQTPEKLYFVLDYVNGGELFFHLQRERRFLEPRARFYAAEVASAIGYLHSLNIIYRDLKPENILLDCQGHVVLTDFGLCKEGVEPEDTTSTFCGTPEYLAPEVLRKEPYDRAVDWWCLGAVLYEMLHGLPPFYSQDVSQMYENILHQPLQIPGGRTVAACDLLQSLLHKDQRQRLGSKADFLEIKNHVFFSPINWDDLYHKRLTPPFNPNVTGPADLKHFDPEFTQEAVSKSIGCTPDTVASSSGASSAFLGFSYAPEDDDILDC
The experiment is described as above. It is filed as biochemical. The note with it: SGK2, ZLYTE, ATP Km app.

Read-outs that look alike come from different tables or passages of the source.

The term inhibition denotes how much of the control response was suppressed.

For `N#Cc1cc(-c2ncnc(Nc3ccc(N4CCN(C5COC5)CC4)cc3)n2)ccc1OC1CCOCC1` [Compound 1, 5-(4-((4-(4-(oxetan-3-yl)piperazin-1-yl)phenyl)amino)-1,3,5-triazin-2-yl)-2-((tetrahydro-2H-pyran-4-yl)oxy)benzonitrile], the inhibition on off-target kinases [1] (read-out: % Inhibition 1) is 0%; at off-target kinases [1] (read-out: % Inhibition 2), 1%; on off-target kinases [1] (read-out: % Inhibition Avg), 0%; on off-target kinases [2] (read-out: % Inhibition 1), 7%; at off-target kinases [2] (read-out: % Inhibition 2) it was 12%; on off-target kinases [2] (read-out: % Inhibition Avg), 10%.

Values taken from patent US11572590B2, “Methods for evaluating tumor cell spheroids using 3D microfluidic cell culture device” (Dana-Farber Cancer Institute, Inc., priority 2017, dated 2023).
